# US9346769B2, “Tetrazolones as inhibitors of fatty acid synthase” (Infinity Pharmaceuticals, Inc., priority 2010, dated 2016)
# Target: T1, human FASN (Homo sapiens, UniProt P49327)
# T1 construct: was purified from SKBR3 cells using procedures modified from those in Jayakumar et al; endogenous in cells; host or cells: SKBR3 human breast cancer cells (ATCC); Endogenous enzyme purified by ammonium sulfate precipitation and a mono Q column
# Test: FASN NADPH Consumption Assay
# Format: biochemical
# Settings: human FASN purified from SKBR3 cells; starred symbols
# Method in brief: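 Native human FASN purified from SKBR3 cells (60 nM final) preincubated 30 min at 37 °C with compound (2.4 nM–40 μM, 4% DMSO) in pH 7.0 phosphate buffer with 5 mM DTT. Reaction started with 0.2 mM NADPH, 50 μM butyryl-CoA, 0.5 mM malonyl-CoA; NADPH consumption followed kinetically by fluorescence (ex 340/em 460 nm); IC50 from logistic fit.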
# T1 sequence (P49327 whole entry): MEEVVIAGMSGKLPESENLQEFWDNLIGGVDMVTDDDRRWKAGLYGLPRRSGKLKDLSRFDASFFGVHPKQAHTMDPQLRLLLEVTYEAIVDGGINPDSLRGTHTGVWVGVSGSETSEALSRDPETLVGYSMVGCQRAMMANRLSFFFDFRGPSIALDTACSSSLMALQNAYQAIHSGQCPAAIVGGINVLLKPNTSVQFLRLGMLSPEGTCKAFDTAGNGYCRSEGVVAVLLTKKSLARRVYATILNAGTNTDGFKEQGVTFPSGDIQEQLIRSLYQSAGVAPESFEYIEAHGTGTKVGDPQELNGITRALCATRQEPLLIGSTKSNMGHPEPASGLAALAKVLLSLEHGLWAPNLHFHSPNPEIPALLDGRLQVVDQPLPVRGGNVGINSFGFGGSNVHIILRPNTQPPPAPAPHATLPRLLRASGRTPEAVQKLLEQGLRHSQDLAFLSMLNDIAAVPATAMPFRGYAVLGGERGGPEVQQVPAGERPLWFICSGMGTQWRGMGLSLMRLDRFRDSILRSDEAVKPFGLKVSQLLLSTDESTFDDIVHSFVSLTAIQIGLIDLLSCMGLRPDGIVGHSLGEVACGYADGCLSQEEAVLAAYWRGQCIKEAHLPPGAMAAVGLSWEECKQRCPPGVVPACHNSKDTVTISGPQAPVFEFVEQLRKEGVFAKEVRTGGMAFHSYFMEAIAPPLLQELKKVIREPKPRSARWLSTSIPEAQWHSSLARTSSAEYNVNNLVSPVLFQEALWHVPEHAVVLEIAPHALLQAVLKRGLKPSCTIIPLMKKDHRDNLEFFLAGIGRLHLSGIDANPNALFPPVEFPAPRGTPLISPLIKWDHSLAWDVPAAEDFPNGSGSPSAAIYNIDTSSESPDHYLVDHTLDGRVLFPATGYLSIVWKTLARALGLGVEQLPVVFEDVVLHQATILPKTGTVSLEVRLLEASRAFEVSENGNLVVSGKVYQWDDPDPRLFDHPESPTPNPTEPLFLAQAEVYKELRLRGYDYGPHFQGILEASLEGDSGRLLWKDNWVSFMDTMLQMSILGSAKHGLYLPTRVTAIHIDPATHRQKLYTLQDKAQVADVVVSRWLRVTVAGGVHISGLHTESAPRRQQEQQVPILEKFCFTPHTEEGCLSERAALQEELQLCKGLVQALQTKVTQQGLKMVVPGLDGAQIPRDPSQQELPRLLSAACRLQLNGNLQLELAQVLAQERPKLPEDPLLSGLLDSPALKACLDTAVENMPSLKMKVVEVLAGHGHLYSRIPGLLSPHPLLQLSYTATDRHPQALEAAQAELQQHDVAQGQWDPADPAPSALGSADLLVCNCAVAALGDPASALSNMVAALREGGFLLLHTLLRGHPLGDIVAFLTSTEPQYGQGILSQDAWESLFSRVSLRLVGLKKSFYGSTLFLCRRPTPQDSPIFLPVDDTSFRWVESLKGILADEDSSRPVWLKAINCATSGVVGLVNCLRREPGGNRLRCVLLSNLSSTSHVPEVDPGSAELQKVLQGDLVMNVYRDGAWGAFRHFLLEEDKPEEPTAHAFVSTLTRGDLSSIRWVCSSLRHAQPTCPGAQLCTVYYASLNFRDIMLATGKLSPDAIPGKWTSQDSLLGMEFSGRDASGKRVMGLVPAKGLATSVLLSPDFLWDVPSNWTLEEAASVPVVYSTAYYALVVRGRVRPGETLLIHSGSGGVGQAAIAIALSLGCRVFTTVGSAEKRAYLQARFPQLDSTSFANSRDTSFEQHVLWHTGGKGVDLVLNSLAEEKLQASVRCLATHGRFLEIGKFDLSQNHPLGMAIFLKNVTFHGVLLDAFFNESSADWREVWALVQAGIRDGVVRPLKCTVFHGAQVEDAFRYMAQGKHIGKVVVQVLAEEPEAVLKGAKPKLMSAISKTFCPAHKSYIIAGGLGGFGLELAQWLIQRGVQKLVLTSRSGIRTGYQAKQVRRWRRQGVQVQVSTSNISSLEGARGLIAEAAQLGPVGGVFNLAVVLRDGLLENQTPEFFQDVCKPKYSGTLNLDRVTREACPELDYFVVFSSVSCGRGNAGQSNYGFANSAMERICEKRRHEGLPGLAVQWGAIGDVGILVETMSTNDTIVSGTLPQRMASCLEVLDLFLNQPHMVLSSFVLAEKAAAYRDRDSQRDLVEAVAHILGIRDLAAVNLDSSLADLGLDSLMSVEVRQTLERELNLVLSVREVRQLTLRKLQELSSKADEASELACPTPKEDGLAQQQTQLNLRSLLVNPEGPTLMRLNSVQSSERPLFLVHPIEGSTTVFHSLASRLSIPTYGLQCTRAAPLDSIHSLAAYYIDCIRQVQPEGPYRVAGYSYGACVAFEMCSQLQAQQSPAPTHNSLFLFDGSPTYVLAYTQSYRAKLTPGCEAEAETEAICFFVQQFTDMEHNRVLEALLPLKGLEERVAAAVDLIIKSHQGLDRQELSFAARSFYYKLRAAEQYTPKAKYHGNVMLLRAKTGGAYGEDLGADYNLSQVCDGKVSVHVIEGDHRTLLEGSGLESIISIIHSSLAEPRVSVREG
row,SMILES,IC50 [nM]
1,CCN(C(=O)n1nnn(-c2c(F)cccc2CCc2ccccc2)c1=O)c1ccccc1,60 to 250
2,CC(C)(C)OC(=O)NCCN(C(=O)n1nnn(-c2c(Cl)cccc2Cl)c1=O)C1CCCCC1,> 10000
3,CCN(C(=O)n1nnn(-c2c(Cl)cccc2Cl)c1=O)C1CCN(C(=O)Cc2ccccc2)CC1,250 to 1000
4,CCN(C(=O)n1nnn(-c2ccccc2I)c1=O)C1CCCCC1,1000 to 10000
5,CCN(C(=O)n1nnn(-c2cc(F)ccc2F)c1=O)C1CCCCC1,1000 to 10000
6,CCc1ccccc1-n1nnn(C(=O)N(CC)C2CCCCC2)c1=O,1000 to 10000
7,CNC(=O)[C@@H]1CCCN1C(=O)n1nnn(-c2c(Cl)cccc2Cl)c1=O,> 10000
8,CN(C(=O)n1nnn(-c2ccccc2Cl)c1=O)c1ccccc1F,60 to 250
9,CCCCCCN(C)C(=O)n1nnn(-c2ccccc2Cl)c1=O,1000 to 10000
10,CCN(C(=O)n1nnn(-c2c(F)cccc2F)c1=O)c1ccc(Cl)cc1Cl,60 to 250
11,O=C(NC1CCCCC1)n1nnn(-c2ccccc2)c1=O,> 10000
12,Cc1ccccc1CCc1cccc(F)c1-n1nnn(C(=O)N2CCCCc3ccccc32)c1=O,60 to 250
13,CCN(CCOC(=O)[C@H](CC(C)C)NC=O)C(=O)n1nnn(-c2c(Cl)cccc2Cl)c1=O,1000 to 10000
14,CCN(C(=O)n1nnn(-c2ccc([N+](=O)[O-])cc2Cl)c1=O)C1CCCCC1,> 10000
15,CC(=O)NC1CCCN(C(=O)n2nnn(-c3c(Cl)cccc3Cl)c2=O)C1 (centres unmarked),> 10000
16,O=C(N1Cc2ccccc2Cc2ccccc21)n1nnn(-c2c(F)cccc2F)c1=O,60 to 250
17,CCN(C(=O)n1nnn(-c2ccsc2)c1=O)C1CCCCC1,> 10000
18,Cc1cccc2c1N(C(=O)n1nnn(-c3c(F)cccc3F)c1=O)CCC2,60 to 250
19,CCN(C(=O)n1nnn(-c2c(Cl)cccc2Cl)c1=O)c1ccccc1,250 to 1000
20,O=C(O)c1ccc2c(c1)CCCN2C(=O)n1nnn(-c2ccccc2)c1=O,60 to 250
21,CCCN(C(=O)n1nnn(-c2ccccc2Cl)c1=O)C1CCCCC1,1000 to 10000
22,CCN(C(=O)n1nnn(-c2ccccc2OC(F)(F)F)c1=O)C1CCCCC1,1000 to 10000
23,COc1ccc(C(=O)O)cc1N(CCCc1ccccc1)C(=O)n1nnn(-c2c(F)cccc2F)c1=O,60 to 250
24,O=C(N1CCCc2ccccc21)n1nnn(-c2c(F)cccc2F)c1=O,60 to 250
25,CN(Cc1ccccc1)C(=O)n1nnn(-c2ccccc2Cl)c1=O,1000 to 10000
26,CCN(C(=O)n1nnn(-c2c(Cl)cccc2Cl)c1=O)C1CCCN(C(C)=O)C1 (centres unmarked),1000 to 10000

row,SMILES,IC50 [nM]
1,CS(=O)(=O)NCCCN(C(=O)n1nnn(-c2c(Cl)cccc2Cl)c1=O)C1CCCCC1,1000 to 10000
2,CCN(C(=O)n1nnn(-c2ccccc2C(C)C)c1=O)C1CCCCC1,1000 to 10000
3,CCCCC#Cc1ccc(N(CC)C(=O)n2nnn(-c3c(F)cccc3F)c2=O)c(F)c1,60 to 250
4,O=C(N1CCCCc2ccccc21)n1nnn(-c2c(F)cccc2F)c1=O,60 to 250
5,CCN(C(=O)n1nnn(-c2c(F)cccc2F)c1=O)c1ccc(C#Cc2ccccc2)cc1F,60 to 250
6,CCN(C(=O)n1nnn(-c2cccc(OC)c2)c1=O)C1CCCCC1,> 10000
7,CCN(C(=O)n1nnn(-c2c(Cl)cccc2Cl)c1=O)c1cccc(C#N)c1,60 to 250
8,CCN(C(=O)n1nnn(-c2ccccc2OC)c1=O)C1CCCCC1,1000 to 10000
9,CCNC(=O)NC1CCCN(C(=O)n2nnn(-c3c(Cl)cccc3Cl)c2=O)C1 (centres unmarked),> 10000
10,O=C(OCc1ccccc1)c1ccc(N(CCc2ccccc2)C(=O)n2nnn(-c3c(Cl)cccc3Cl)c2=O)cc1,> 10000
11,CN(C)N(C(=O)n1nnn(-c2ccccc2Cl)c1=O)C1=CCCCC1,1000 to 10000
12,O=C(N1CCCC2CCCCC21)n1nnn(-c2ccccc2Oc2ccccc2)c1=O (centres unmarked),250 to 1000
13,CCN(C(=O)n1nnn(-c2c(F)cccc2C(=O)OC)c1=O)c1ccccc1,60 to 250
14,CCN(C(=O)n1nnn(-c2cccc(C(F)(F)F)c2)c1=O)C1CCCCC1,> 10000
15,CCN(C(=O)n1nnn(-c2c(Cl)cccc2Cl)c1=O)C1CCC(C(=O)NC)CC1 (centres unmarked),1000 to 10000
16,CC(C)N(C(=O)n1nnn(-c2ccccc2Cl)c1=O)C1CCCCC1,> 10000
17,CCN(C(=O)n1nnn(-c2c(F)cccc2F)c1=O)c1c(F)cccc1Cl,60 to 250
18,CCN(C(=O)n1nnn(-c2ccccc2)c1=O)c1ccc(C(=O)O)c(OC)c1,60 to 250
19,CCCCC#Cc1ccc(N(C)C(=O)n2nnn(-c3c(F)cccc3F)c2=O)cc1,250 to 1000
20,CC(C)(C)OC(=O)Nc1cccc2c1CCCN2C(=O)n1nnn(-c2c(F)cccc2F)c1=O,60 to 250
21,CCCOc1ccc(C(=O)O)cc1N(CC)C(=O)n1nnn(-c2ccccc2OC)c1=O,250 to 1000
22,CCN(C(=O)n1nnn(-c2c(Cl)cccc2Cl)c1=O)c1cccc(C(=O)O)c1OC,1000 to 10000
23,O=C(N1CCCC1)n1nnn(-c2c(Cl)cccc2Cl)c1=O,> 10000
24,CCN(C(=O)n1nnn(-c2c(F)cccc2F)c1=O)c1cccc(F)c1F,< 60
25,CCN(C(=O)n1nnn(-c2ccc(OC)cc2)c1=O)C1CCCCC1,> 10000
26,Nc1cccc2c1CCCN2C(=O)n1nnn(-c2c(F)cccc2F)c1=O,60 to 250

row,SMILES,IC50 [nM]
1,CCN(C(=O)n1nnn(-c2ccc([N+](=O)[O-])cc2)c1=O)C1CCCCC1,1000 to 10000
2,CN(C(=O)n1nnn(-c2c(F)cccc2F)c1=O)c1ccccn1,250 to 1000
3,C/C=C/C/C=C/CCCN(CCC)C(=O)n1nnn(-c2ccccc2Cl)c1=O,250 to 1000
4,CCN(C(=O)n1nnn(-c2ccccc2OC)c1=O)c1cc(C(=O)O)ccc1OC,60 to 250
5,CN(C(=O)n1nnn(-c2ccccc2Br)c1=O)c1ccccc1,250 to 1000
6,CCN(C(=O)n1nnn(-c2ccc(N(C)C)cc2)c1=O)C1CCCCC1,1000 to 10000
7,CN(C(=O)n1nnn(-c2c(F)cccc2F)c1=O)c1ccccc1Br,60 to 250
8,CCOC(=O)c1ccc(N(C(=O)n2nnn(-c3c(F)cccc3F)c2=O)N(C)C)cc1,60 to 250
9,CN(C(=O)n1nnn(-c2c(F)cccc2F)c1=O)c1cc(F)cc(F)c1,60 to 250
10,CCN(C(=O)n1nnn(-c2ccccc2SC)c1=O)C1CCCCC1,1000 to 10000
11,CCN(C(=O)n1nnn(-c2cccc(F)c2)c1=O)C1CCCCC1,> 10000
12,CCN(C(=O)n1nnn(-c2c(Cl)cccc2Cl)c1=O)c1ccc(C(=O)OCc2ccccc2)c(Cl)c1,60 to 250
13,CCN(CC)C(=O)n1nnn(-c2ccccc2Cl)c1=O,1000 to 10000
14,CCN(C(=O)n1nnn(-c2c(F)cccc2F)c1=O)c1ccc(C#CCC2CCCCC2)cc1F,60 to 250
15,CCN(C(=O)n1nnn(-c2c(F)cccc2F)c1=O)c1ccccc1[N+](=O)[O-],< 60
16,CCN(C(=O)n1nnn(-c2c(Cl)cccc2Cl)c1=O)C1CCN(C(C)=O)CC1,1000 to 10000
17,O=C(C1CCCN(C(=O)n2nnn(-c3c(Cl)cccc3Cl)c2=O)C1)N1CCCC1 (centres unmarked),> 10000
18,CCN(C(=O)n1nnn(-c2cc(Cl)ccc2Cl)c1=O)C1CCCCC1,1000 to 10000
19,CCN(C(=O)n1nnn(-c2ccccc2Cl)c1=O)C1CCCCC1,1000 to 10000
20,CC(=O)N[C@@H]1CCN(C(=O)n2nnn(-c3c(Cl)cccc3Cl)c2=O)C1,> 10000
21,CCN(C(=O)n1nnn(-c2c(F)cccc2F)c1=O)c1ccc(C#CC(C)(C)C)cc1F,60 to 250
22,CCN(C(=O)n1nnn(-c2ccc(Cl)cc2)c1=O)C1CCCCC1,> 10000
23,C=CCN(C(=O)n1nnn(-c2ccccc2Cl)c1=O)c1ccccc1,60 to 250
24,COC(=O)C1CCc2ccccc2N1C(=O)n1nnn(-c2ccccc2Oc2ccccc2)c1=O (centres unmarked),250 to 1000
25,CN(C)C(=O)[C@@H]1CCCN1C(=O)n1nnn(-c2c(Cl)cccc2Cl)c1=O,> 10000
26,O=CNc1cccc2c1CCCN2C(=O)n1nnn(-c2c(F)cccc2F)c1=O,60 to 250

row,SMILES,IC50 [nM]
1,N#CCCN(C(=O)n1nnn(-c2c(Cl)cccc2Cl)c1=O)C1CCCCC1,1000 to 10000
2,CCN(C(=O)n1nnn(-c2c(Cl)cccc2Cl)c1=O)c1cccc([N+](=O)[O-])c1,60 to 250
3,CCN(C(=O)n1nnn(-c2c(Cl)cccc2Cl)c1=O)c1ccc(Cl)c(C(=O)O)c1,60 to 250
4,O=C(N1CCCC2CCCCC21)n1nnn(-c2c(F)cccc2F)c1=O (centres unmarked),60 to 250
5,CCN(C(=O)n1nnn(-c2ccc(F)cc2)c1=O)C1CCCCC1,> 10000
6,O=C(NCCCN(C(=O)n1nnn(-c2c(Cl)cccc2Cl)c1=O)C1CCCCC1)c1cccnc1,1000 to 10000
7,CC(=O)N[C@H]1CCN(C(=O)n2nnn(-c3c(Cl)cccc3Cl)c2=O)C1,> 10000
8,CCN(C(=O)n1nnn(-c2c(Cl)cccc2Cl)c1=O)C1CCCN(C(=O)Cc2ccccc2)C1 (centres unmarked),1000 to 10000
9,O=C(N1CCCc2ccc(C(F)(F)F)cc21)n1nnn(-c2c(F)cccc2F)c1=O,250 to 1000
10,CCN(C(=O)n1nnn(-c2c(F)cccc2CCc2ccccc2C)c1=O)c1ccccc1,60 to 250
11,CN(C)C1CCCN(C(=O)n2nnn(-c3c(Cl)cccc3Cl)c2=O)C1 (centres unmarked),1000 to 10000
12,CCN(C(=O)n1nnn(-c2ccccc2OC)c1=O)c1ccc(C(=O)O)cc1OC,60 to 250
13,CCN(C(=O)n1nnn(-c2cccc(Cl)c2)c1=O)C1CCCCC1,> 10000
14,CC(C)(C)OC(=O)C1CCN(C(=O)n2nnn(-c3c(Cl)cccc3Cl)c2=O)CC1,1000 to 10000
15,CN(C(=O)n1nnn(-c2c(F)cccc2F)c1=O)c1ccccc1,60 to 250
16,CCN(C(=O)n1nnn(-c2ccccc2C#N)c1=O)C1CCCCC1,1000 to 10000
17,CC(C)N(C(=O)n1nnn(-c2c(Cl)cccc2Cl)c1=O)c1ccccc1,250 to 1000
18,CN(C(=O)n1nnn(-c2c(F)cccc2F)c1=O)c1ccc(Br)cc1,60 to 250
19,CCN(C(=O)n1nnn(-c2c(F)cccc2F)c1=O)c1ccc([N+](=O)[O-])cc1,60 to 250
20,O=CNc1ccc2c(c1)CCCN2C(=O)n1nnn(-c2c(F)cccc2F)c1=O,60 to 250
21,CCN(C(=O)n1nnn(-c2ccc(C(F)(F)F)cc2Cl)c1=O)C1CCCCC1,> 10000
22,CCN(C(=O)n1nnn(-c2c(F)cccc2F)c1=O)c1ccc(C)cc1,60 to 250
23,CC(C)(C)OC(=O)NCCCN(C(=O)n1nnn(-c2c(Cl)cccc2Cl)c1=O)C1CCCCC1,1000 to 10000
